Laboratory results: patent publication US11559575B2, “Multi-epitopic peptide compounds and vaccines against leishmaniasis” (INSTITUT DE RECHERCHE POUR LE DEVELOPPEMENT, priority 2018, dated 2023)
Entries after “also recorded” stand apart in the source; their conditions may differ.

Tested on: HLA alleles of class II
Assay: Affinity of epitopes for HLA alleles of class II
Assay type: binding, human
Settings: for Concatenation affinity for the HLA alleles of class II: H2B-II peptides; for Concatenation affinity for the HLA alleles of class II / Affinity HLA alleles of class II: Table 1; for Affinity HLA alleles of class II: H2B-II core epitopes
Excerpt: The multiepitopic peptide compounds (24 to 40-mer), having a high affinity with a maximized number of HLA molecules of class I and of class II, such as the affinities for the alleles HLA of class I and HLA of class II of the epitopes in the peptides of the sequences SEQ ID NO: 22, 23, 65, 66, 69, 73, 77, 96, 97, 137, 138, and 157, 185, have a high immunoprevalent potential corresponding to an optimal vaccine coverage, in particular for the populations concerned. The degree of coverage of the peptide compounds of the invention show a very high added value compared with the peptides of the prior art.

## AINAQMSMSHRTMKI (Leishmania major) [SEQ ID NO: 40]
  Concatenation affinity for the HLA alleles of class II: HLA-DRB1*01:01, HLA-DRB1*04:01, HLA-DRB1*09:01,; also recorded: HLA-DRB1*15:01, HLA-DRB4*01:01, HLA-DRB5*01:01,; also recorded: HLA-DRB3*01:01, HLA-DRB1*11:01, HLA-DRB1*07:01

## AIVTSRKVQ (Leishmania major) [SEQ ID NO: 119]
LmlRAB-IIB core, Table 2
  Concatenation affinity for HLA alleles of class II: HLA-DRB1*11:01

## AIVTSRKVQEEVFDL (Leishmania major) [SEQ ID NO: 98]
LmlRAB-IIB peptides, Table 2
  Concatenation affinity for HLA alleles of class II: HLA-DRB1*03:01, HLA-DRB1*11:01,; also recorded: HLA-DRB1*12:01

## AQMSMSHRT (Leishmania major) [SEQ ID NO: 42]
  Affinity HLA alleles of class II: HLA-DRB1*07:01

## DFSNMGLLL (listed as Leishmania infantum) [SEQ ID NO: 171]
PSA KC-2.7 core, Table 3
  Concatenation affinity for HLA alleles of class II: HLA-DPA1*01:03/; also recorded: DPB1*04:01,; also recorded: HLA-DPA1*03:01/; also recorded: DPB1*04:02

## DLFTDVHYSEVSAKT (Leishmania major) [SEQ ID NO: 99]
LmlRAB-IIB peptides, Table 2
  Concatenation affinity for HLA alleles of class II: HLA-DRB1*04:01, HLA-DRB7*01:01,; also recorded: HLA-DPA1*01:03/DPB1*02:01,; also recorded: HLA-DPA1*01/DPB1*04:01, HLA-DPA1*02:01/; also recorded: HLA-DPB1*14:01

## DYSHSMIRDLDFSNM (listed as Leishmania infantum) [SEQ ID NO: 158]
PSA KC-2.7 peptides, Table 3
  Concatenation affinity for HLA alleles of class II: HLA-DRB1*04:01, HLA-DRB1*04:05,; also recorded: HLA-DRB1*07:01, HLA-DRB1*09:01,; also recorded: HLA-DRB1*12:01, HLA-DRB4*01:01,; also recorded: HLA-DPA1*02:01/DPB1*14:01

## EEVFDLFTDVHYSEV (Leishmania major) [SEQ ID NO: 100]
LmlRAB-IIB peptides, Table 2
  Concatenation affinity for HLA alleles of class II: HLA-DRB1*01:01, HLA-DRB1*03:01,; also recorded: HLA-DRB1*04:01, HLA-DRB1*04:05,; also recorded: HLA-DRB1*07:01, HLA-DRB1*15:01,; also recorded: HLA-DRB1*12:01, HLA-DRB3*01:01,; also recorded: HLA-DPA1*01:03/DPB1*02:01,; also recorded: HLA-DPA1*01/DPB1*04:01, HLA-DPA1*02:01/; also recorded: HLA-DPB1*14:01

## EGYFLTDEKTSLVYG (listed as Leishmania infantum) [SEQ ID NO: 139]
PSA KC-2.6 peptides, Table 3
  Concatenation affinity for HLA alleles of class II: HLA-DRB1*12:01, HLA-DRB1*13:02,; also recorded: HLA-DRB3*01:01, HLA-DRB3*02:02,; also recorded: HLA-DPA1*03:01/DPB1*04:02; also recorded: HLA-DRB1*01:01, HLA-DRB1*03:01,; also recorded: HLA-DRB1*04:01, HLA-DRB1*04:05,; also recorded: HLA-DRB1*07:01, HLA-DRB1*11:01,

## ENAIVTSRKVQEEVF (Leishmania major) [SEQ ID NO: 101]
LmlRAB-IIB peptides, Table 2
  Concatenation affinity for HLA alleles of class II: HLA-DRB1*03:01, HLA-DRB1*07:01,; also recorded: HLA-DRB1*08:02, HLA-DRB1*11:01,; also recorded: HLA-DRB1*12:01

## FDLFTDVHYSEVSAK (Leishmania major) [SEQ ID NO: 103]
LmlRAB-IIB peptides, Table 2
  Concatenation affinity for HLA alleles of class II: HLA-DRB1*01:01, HLA-DRB1*03:01,; also recorded: HLA-DRB1*07:01, HLA-DRB1*09:01,; also recorded: HLA-DPA1*03:01/DPB1*04:02,; also recorded: HLA-DPA1*02:01/HLA-DPB1*14:01

## FLTDEKTSLVYGDGG (listed as Leishmania infantum) [SEQ ID NO: 140]
PSA KC-2.6 peptides, Table 3
  Concatenation affinity for HLA alleles of class II: HLA-DRB1*03:01, HLA-DRB3*01:01

## FSNMGLLLS (listed as Leishmania infantum) [SEQ ID NO: 172]
PSA KC-2.7 core, Table 3
  Concatenation affinity for HLA alleles of class II: HLA-DRB1*11:01

## GEGYFLTDEKTSLVY (listed as Leishmania infantum) [SEQ ID NO: 141]
PSA KC-2.6 peptides, Table 3
  Concatenation affinity for HLA alleles of class II: HLA-DRB1*01:01, HLA-DRB1*03:01,; also recorded: HLA-DRB1*04:01, HLA-DRB1*04:05,; also recorded: HLA-DRB1*07:01, HLA-DRB1*11:01,; also recorded: HLA-DRB1*12:01, HLA-DRB1*13:02,; also recorded: HLA-DRB3*01:01, HLA-DRB3*02:02,; also recorded: HLA-DPA1*03:01/DPB1*04:02,; also recorded: HLA-DPA1*02:01/HDPB1*14:01

## GRHLSIVADHMPHLD (Leishmania major) [SEQ ID NO: 86]
LmLRAB-IIA peptides, Table 2
  Concatenation affinity for HLA alleles of class II: HLA-DRB3*01:01,; also recorded: HLA-DRB1*03:01,; also recorded: HLA-DRB1*13:02,

## GRLHSVVGRHLSIVA (Leishmania major) [SEQ ID NO: 79]
LmLRAB-IIA peptides, Table 2
  Concatenation affinity for HLA alleles of class II: HLA-DRB1*07:01,; also recorded: HLA-DRB5*01:01,; also recorded: HLA-DRB1*15:01,; also recorded: HLA-DRB1*11:01,; also recorded: HLA-DRB1*09:01,; also recorded: HLA-DRB4*01:01

## GRSENAIVTSRKVQE (Leishmania major) [SEQ ID NO: 104]
LmlRAB-IIB peptides, Table 2
  Concatenation affinity for HLA alleles of class II: HLA-DRB1*01:01, HLA-DRB1*03:01,; also recorded: HLA-DRB1*07:01, HLA-DRB1*11:01,; also recorded: HLA-DRB1*12:01, HLA-DRB5*01:01

## GRSLKAINA (Leishmania major) [SEQ ID NO: 43]
  Affinity HLA alleles of class II: HLA-DRB1*01:01

## GRSLKAINAQMSMSH (Leishmania major) [SEQ ID NO: 35]
  Concatenation affinity for the HLA alleles of class II: HLA-DRB1*15:01, HLA-DRB1*01:01, HLA-DRB1*04:05,; also recorded: HLA-DRB1*07:01, HLA-DRB1*08:02, HLA-DRB1*09:01,; also recorded: HLA-DRB1*11:01, HLA-DRB4*01:01, HLA-DRB5*01:01,; also recorded: HLA-DRB1*04:01, HLA-DRB1*13:02

## GSDYSHSMIRDLDFS (listed as Leishmania infantum) [SEQ ID NO: 159]
PSA KC-2.7 peptides, Table 3
  Concatenation affinity for HLA alleles of class II: HLA-DRB1*01:01, HLA-DRB1*04:05,; also recorded: HLA-DRB1*07:01, HLA-DRB1*09:01,; also recorded: HLA-DRB4*01:01, HLA-DRB5*01:01,; also recorded: HLA-DPA1*02:01/DPB1*14:01

## GYFLTDEKT (listed as Leishmania infantum) [SEQ ID NO: 147]
PSA KC-2.6 core, Table 3
  Concatenation affinity for HLA alleles of class II: HLA-DRB1*04:01,; also recorded: HLA-DPA1*02:01/; also recorded: DPB1*01:01

## GYFLTDEKTSLVYGD (listed as Leishmania infantum) [SEQ ID NO: 142]
PSA KC-2.6 peptides, Table 3
  Concatenation affinity for HLA alleles of class II: HLA-DRB1*01:01, HLA-DRB1*03:01,; also recorded: HLA-DRB1*04:01, HLA-DRB1*07:01,; also recorded: HLA-DRB1*11:01, HLA-DRB3*01:01,; also recorded: HLA-DRB3*02:02,; also recorded: HLA-DPA1*02:01/DPB1*14:01,; also recorded: HLA-DPA1*03:01/DPB1*04:02

## HLSIVADHM (Leishmania major) [SEQ ID NO: 88]
LmLRAB-IIA core, Table 2
  Concatenation affinity for HLA alleles of class II: HLA-DRB1*01:01

## HSVVGRHLSIVADHM (Leishmania major) [SEQ ID NO: 82]
LmLRAB-IIA peptides, Table 2
  Concatenation affinity for HLA alleles of class II: HLA-DRB1*15:01

## HYSEVSAKT (Leishmania major) [SEQ ID NO: 122]
LmlRAB-IIB core, Table 2
  Concatenation affinity for HLA alleles of class II: HLA-DRB1*04:01

## INAQMSMSH (Leishmania major) [SEQ ID NO: 44]
  Affinity HLA alleles of class II: HLA-DRB1*04:01,; also recorded: HLA-DRB1*04:05,; also recorded: HLA-DRB1*09:01,; also recorded: HLA-DRB1*11:01,; also recorded: HLA-DRB1*15:01,; also recorded: HLA-DRB4*01:01,; also recorded: HLA-DRB5*01:01

## INAQMSMSHRTMKIV (Leishmania major) [SEQ ID NO: 41]
  Concatenation affinity for the HLA alleles of class II: HLA-DRB1*04:01, HLA-DRB1*15:01, HLA-DRB1*05:01,; also recorded: HLA-DRB1*03:01, HLA-DRB1*09:01, HLA-DRB1*11:01,; also recorded: HLA-DRB1*01:01, HLA-DRB4*01:01, HLA-DRB1*07:01,; also recorded: HLA-DRB1*13:02

## IRDLDFSNM (listed as Leishmania infantum) [SEQ ID NO: 174]
PSA KC-2.7 core, Table 3
  Concatenation affinity for HLA alleles of class II: HLA-DRB1*01:01,; also recorded: HLA-DRB4*01:01

## IVTSRKVQE (Leishmania major) [SEQ ID NO: 123]
LmlRAB-IIB core, Table 2
  Concatenation affinity for HLA alleles of class II: HLA-DRB1*03:01,; also recorded: HLA-DRB1*08:02,; also recorded: HLA-DRB1*11:01

## IVTSRKVQEEVFDLF (Leishmania major) [SEQ ID NO: 105]
LmlRAB-IIB peptides, Table 2
  Concatenation affinity for HLA alleles of class II: HLA-DRB1*03:01, HLA-DRB1*11:01,; also recorded: HLA-DPA1*01:03/DPB1*02:01,; also recorded: HLA-DPA1*01/DPB1*04:01,; also recorded: HLA-DPA1*02:01/DPB1*05:01,; also recorded: HLA-DPA1*02:01/HLA-DPB1*14:01

## KAINAQMSMSHRTMK (Leishmania major) [SEQ ID NO: 39]
  Concatenation affinity for the HLA alleles of class II: HLA-DRB1*07:01, HLA-DRB1*04:01, HLA-DRB1*04:05,; also recorded: HLA-DRB1*09:01, HLA-DRB1*11:01, HLA-DRB1*15:01,; also recorded: HLA-DRB5*01:01, HLA-DRB4*01:01, HLA-DRB1*03:01,

## KGRLHSVVGRHLSIV (Leishmania major) [SEQ ID NO: 78]
LmLRAB-IIA peptides, Table 2
  Concatenation affinity for HLA alleles of class II: HLA-DRB1*07:01,; also recorded: HLA-DRB5*01:01,; also recorded: HLA-DRB1*11:01,; also recorded: HLA-DRB1*15:01,; also recorded: HLA-DRB1*09:01,; also recorded: HLA-DRB4*01:01
